Test results from paper PMC10876879, “Sustained silencing peanut allergy by xanthopurpurin is associated with suppression of peripheral and bone marrow IgE-producing B cell” (Frontiers in Immunology, 2024).
Where two headings read alike, the source gives them in different places.

Experiments:
IgE production [1] = assay: IgE production in vitro, other R. cordifolia compounds (data not shown); assay type: cell-based
IgE production [2] = assay: IgE production in vivo, other R. cordifolia compounds (data not shown)
[3] = set-up: method as in PMID 28208101; conditions: cited from earlier work
PN-allergic mice = conditions: oral berberine alone; cited from earlier work
IgE production [4] = conditions: cited from earlier work
IgE = test system: IgE; set-up: method as in PMID 26185589; conditions: cited from earlier work

1,3-dihydroxy-2-ethoxymethyl-9,10 anthraquinone [alizarin]
IgE production in vitro (IgE production [1]): inhibited IgE production only in vitro | IgE production in vivo (IgE production [2]): failed in vivo

COc1ccc2cc3[n+](cc2c1OC)CCc1cc2c(cc1-3)OCO2 [berberine]
Bioavailability [3]: poor | PN-specific IgE levels (PN-allergic mice): did not reduce PN-specific IgE levels | Protection from anaphylaxis (PN-allergic mice): failed to protect PN-allergic mice from anaphylaxis | IgE production in vitro (IgE production [4]): significantly inhibited the IgE production

O=C1c2ccccc2C(=O)c2c(O)c(O)cc(O)c21 [purpurin, 1,2,4-trihydroxyanthraquinone]
IgE production in vitro (IgE production [1]): inhibited IgE production only in vitro | IgE production in vivo (IgE production [2]): failed in vivo

omalizumab: anti-IgE therapy, neutralizes free serum IgE
Anaphylactic reactions during oral immunotherapy (OIT) (IgE): greatly reduce anaphylactic reactions
